*1 amine or outer side, *2 acyl side, *3 side chain or, on linkers, in order; H or OH if unused. Where a SMILES comes first, the peptide text is derived from it. [ ]: non-standard residue; d: D form. Trp(4-Cl)(βS-Me) = C[C@@H](c1c[nH]c2cccc(Cl)c12)[C@H](N)C(=O)O; Bip(4'-COOH) = N[C@@H](Cc1ccc(-c2ccc(C(=O)O)cc2)cc1)C(=O)O; 1Nal(3S-Me) = C[C@@H](c1cccc2ccccc12)[C@H](N)C(=O)O; X8 = O=C([C@H](CCc1cccc(C(F)(F)F)c1)N[*:1])[*:2]; Phe(4-COOH) = N[C@@H](Cc1ccc(C(=O)O)cc1)C(=O)O; X10 = O=C([C@H](CC1CCC(F)(F)CC1)N[*:1])[*:2]; h3Pal(5-CN) = N#Cc1cncc(CC[C@H](N)C(=O)O)c1; Phe(4-NH2) = Nc1ccc(C[C@H](N)C(=O)O)cc1; Pro(4R-NH2) = N[C@H]1CN[C@H](C(=O)O)C1; 1Nal = N[C@@H](Cc1cccc2ccccc12)C(=O)O; AEF = NCCOc1ccc(C[C@H](N)C(=O)O)cc1; hTyr = N[C@@H](CCc1ccc(O)cc1)C(=O)O; 4Pal = N[C@@H](Cc1ccncc1)C(=O)O; Orn = NCCC[C@H](N)C(=O)O; dNMeA = CN[C@H](C)C(=O)O; Dab = NCC[C@H](N)C(=O)O; Nva = CCC[C@H](N)C(=O)O; Dap = NC[C@H](N)C(=O)O; Aib = CC(C)(N)C(=O)O
What follows are compounds tested against T1, Recombinant human IL-1β (Homo sapiens, UniProt P01584) (assay: IL-6 assay in MRC5 cells: inhibition of IL-1β induced IL-6 secretion (AlphaLISA)). Conditions: inhibition of IL-1β induced IL-6 secretion in MRC5 cells; read-out: MRC5 IC50.
T1 construct: purchased BioLegend 579404
T1 sequence (P01584 117-269): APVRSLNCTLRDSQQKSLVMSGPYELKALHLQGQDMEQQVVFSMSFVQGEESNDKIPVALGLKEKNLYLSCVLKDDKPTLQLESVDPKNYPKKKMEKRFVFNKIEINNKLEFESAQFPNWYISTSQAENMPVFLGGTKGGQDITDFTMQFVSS
Type: cell-based
In short: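 IL-1β at 2×EC80 in seeding medium (EMEM, 0.025% BSA) preincubated 1 h at ambient temperature with compound, then 3000 MRC5 cells/well added and incubated overnight at 37 °C, 5% CO2. IL-6 in conditioned medium quantified by AlphaLISA; IC50 from 4-parameter logistic fit.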
With `CC(=O)NCCOc1ccc(C[C@@H]2NC(=O)[C@H](CCc3ccc(O)cc3)NC(=O)[C@@H](C)NC(=O)[C@H](CN)NC(=O)[C@H](Cc3c[nH]c4ccccc34)NC(=O)[C@H](Cc3ccc(-c4ccc(C(=O)O)cc4)cc3)NC(=O)CNC(=O)[C@@H](C)N(C)C(=O)[C@H](CC(N)=O)NC(=O)[C@H]([C@@H](C)c3cccc4ccccc34)NC(=O)[C@@H]3C[C@@H](N)CN3C(=O)CNC(=O)[C@H](Cc3ccc(C(=O)O)cc3)NC(=O)[C@H](Cc3c[nH]c4ccccc34)NC2=O)cc1` [Example 129] (cyclo([AEF](Ac)W[Phe(4-COOH)]G[Pro(4R-NH2)][1Nal(3S-Me)]N[dNMeA]G[Bip(4'-COOH)]W[Dap][dA][hTyr])) the IC50 was 82.8 pM. In the case of `CC(=O)NCCOc1ccc(C[C@@H]2NC(=O)[C@H](CCc3cncc(C#N)c3)NC(=O)C(C)(C)NC(=O)[C@H](CN)NC(=O)[C@H](Cc3cccc4ccccc34)NC(=O)[C@H](Cc3ccc(-c4ccc(C(=O)O)cc4)cc3)NC(=O)CNC(=O)[C@@H](C)N(C)C(=O)[C@H](CC(=O)O)NC(=O)[C@H]([C@@H](C)c3c[nH]c4cccc(Cl)c34)NC(=O)[C@@H]3C[C@@H](N)CN3C(=O)CNC(=O)[C@H](Cc3ccc(C(=O)O)cc3)NC(=O)[C@H](Cc3c[nH]c4ccccc34)NC2=O)cc1` [Example 130] (cyclo([AEF](Ac)W[Phe(4-COOH)]G[Pro(4R-NH2)][Trp(4-Cl)(βS-Me)]D[dNMeA]G[Bip(4'-COOH)][1Nal][Dap][Aib][h3Pal(5-CN)])), the IC50 is reported as 114 pM. `CC(=O)NCCOc1ccc(C[C@@H]2NC(=O)[C@H](CCc3ccc(O)cc3)NC(=O)[C@@H](C)NC(=O)[C@H](CC(C)C)NC(=O)[C@H](Cc3cccc4ccccc34)NC(=O)[C@H](Cc3ccc(-c4ccc(C(=O)O)cc4)cc3)NC(=O)CNC(=O)[C@@H](C)N(C)C(=O)[C@H](CC(=O)O)NC(=O)[C@H]([C@@H](C)c3c[nH]c4cccc(Cl)c34)NC(=O)[C@@H]3C[C@@H](N)CN3C(=O)CNC(=O)[C@H](Cc3ccc(C(=O)O)cc3)NC(=O)[C@H](Cc3c[nH]c4ccccc34)NC2=O)cc1` [Example 131] (cyclo([AEF](Ac)W[Phe(4-COOH)]G[Pro(4R-NH2)][Trp(4-Cl)(βS-Me)]D[dNMeA]G[Bip(4'-COOH)][1Nal]L[dA][hTyr])) was tested, and the IC50 was 49.8 pM. In the case of `CC(=O)NCCOc1ccc(C[C@@H]2NC(=O)CNC(=O)C(C)(C)NC(=O)[C@H](CCCN)NC(=O)[C@H](Cc3cccc4ccccc34)NC(=O)[C@H](Cc3ccc(-c4ccc(C(=O)O)cc4)cc3)NC(=O)CNC(=O)[C@@H](C)N(C)C(=O)[C@H](CC(=O)O)NC(=O)[C@H]([C@@H](C)c3c[nH]c4cccc(Cl)c34)NC(=O)[C@@H]3C[C@@H](N)CN3C(=O)CNC(=O)[C@H](Cc3ccc(C(=O)O)cc3)NC(=O)[C@H](Cc3c[nH]c4ccccc34)NC2=O)cc1` [Example 132] (cyclo([AEF](Ac)W[Phe(4-COOH)]G[Pro(4R-NH2)][Trp(4-Cl)(βS-Me)]D[dNMeA]G[Bip(4'-COOH)][1Nal][Orn][Aib]G)), the IC50 is reported as 370 pM. With `CC(=O)NCCOc1ccc(C[C@@H]2NC(=O)[C@H](Cc3ccc(N)cc3)NC(=O)[C@@H](C)NC(=O)[C@H](CO)NC(=O)[C@H](Cc3cccc4ccccc34)NC(=O)[C@H](Cc3ccc(-c4ccc(C(=O)O)cc4)cc3)NC(=O)CNC(=O)[C@@H](C)N(C)C(=O)[C@H](CC(=O)O)NC(=O)[C@H]([C@@H](C)c3c[nH]c4cccc(Cl)c34)NC(=O)[C@@H]3C[C@@H](N)CN3C(=O)CNC(=O)[C@H](Cc3ccc(C(=O)O)cc3)NC(=O)[C@H](Cc3c[nH]c4ccccc34)NC2=O)cc1` [Example 133] (cyclo([AEF](Ac)W[Phe(4-COOH)]G[Pro(4R-NH2)][Trp(4-Cl)(βS-Me)]D[dNMeA]G[Bip(4'-COOH)][1Nal]S[dA][Phe(4-NH2)])) the IC50 was 766 pM. Work on `CC(=O)NCCOc1ccc(C[C@@H]2NC(=O)[C@H](CCc3ccc(O)cc3)NC(=O)[C@@H](C)NC(=O)[C@H](CCN)NC(=O)[C@H](Cc3ccncc3)NC(=O)[C@H](Cc3ccc(-c4ccc(C(=O)O)cc4)cc3)NC(=O)CNC(=O)[C@@H](C)N(C)C(=O)[C@H](CC(=O)O)NC(=O)[C@H]([C@@H](C)c3c[nH]c4cccc(Cl)c34)NC(=O)[C@@H]3C[C@@H](N)CN3C(=O)CNC(=O)[C@H](Cc3ccc(C(=O)O)cc3)NC(=O)[C@H](Cc3c[nH]c4ccccc34)NC2=O)cc1` [Example 134] (cyclo([AEF](Ac)W[Phe(4-COOH)]G[Pro(4R-NH2)][Trp(4-Cl)(βS-Me)]D[dNMeA]G[Bip(4'-COOH)][4Pal][Dab][dA][hTyr])) yielded an IC50 of 378 pM. `CC(=O)NCCOc1ccc(C[C@@H]2NC(=O)[C@H](CCc3ccc(O)cc3)NC(=O)[C@@H](C)NC(=O)[C@H](CC(C)C)NC(=O)[C@H](Cc3ccncc3)NC(=O)[C@H](Cc3ccc(-c4ccc(C(=O)O)cc4)cc3)NC(=O)CNC(=O)[C@@H](C)N(C)C(=O)[C@H](CC(=O)O)NC(=O)[C@H]([C@@H](C)c3c[nH]c4cccc(Cl)c34)NC(=O)[C@@H]3C[C@@H](N)CN3C(=O)CNC(=O)[C@H](Cc3ccc(C(=O)O)cc3)NC(=O)[C@H](Cc3c[nH]c4ccccc34)NC2=O)cc1` [Example 135] (cyclo([AEF](Ac)W[Phe(4-COOH)]G[Pro(4R-NH2)][Trp(4-Cl)(βS-Me)]D[dNMeA]G[Bip(4'-COOH)][4Pal]L[dA][hTyr])) gave an IC50 of 310 pM. `CCC[C@@H]1NC(=O)[C@H](Cc2ccncc2)NC(=O)[C@H](Cc2ccc(-c3ccc(C(=O)O)cc3)cc2)NC(=O)CNC(=O)[C@@H](C)N(C)C(=O)[C@H](CC(=O)O)NC(=O)[C@H]([C@@H](C)c2c[nH]c3cccc(Cl)c23)NC(=O)[C@@H]2C[C@@H](N)CN2C(=O)CNC(=O)[C@H](Cc2ccc(C(=O)O)cc2)NC(=O)[C@H](Cc2c[nH]c3ccccc23)NC(=O)[C@H](Cc2ccc(OCCNC(C)=O)cc2)NC(=O)[C@H](CC2CCC(F)(F)CC2)NC(=O)[C@@H](C)NC1=O` [Example 136] (cyclo([AEF](Ac)W[Phe(4-COOH)]G[Pro(4R-NH2)][Trp(4-Cl)(βS-Me)]D[dNMeA]G[Bip(4'-COOH)][4Pal][Nva][dA][X10])) was tested, and the IC50 was 396 pM. Compound `CC(=O)NCCOc1ccc(C[C@@H]2NC(=O)[C@H](CCc3cccc(C(F)(F)F)c3)NC(=O)[C@@H](C)NC(=O)[C@H](CC(C)C)NC(=O)[C@H](CCCCN)NC(=O)[C@H](Cc3ccc(-c4ccc(C(=O)O)cc4)cc3)NC(=O)CNC(=O)[C@@H](C)N(C)C(=O)[C@H](CC(=O)O)NC(=O)[C@H]([C@@H](C)c3c[nH]c4cccc(Cl)c34)NC(=O)[C@@H]3C[C@@H](N)CN3C(=O)CNC(=O)[C@H](Cc3ccc(C(=O)O)cc3)NC(=O)[C@H](Cc3c[nH]c4ccccc34)NC2=O)cc1` [Example 137] (cyclo([AEF](Ac)W[Phe(4-COOH)]G[Pro(4R-NH2)][Trp(4-Cl)(βS-Me)]D[dNMeA]G[Bip(4'-COOH)]KL[dA][X8])) has an IC50 of 93.8 pM. `CC(=O)NCCOc1ccc(C[C@@H]2NC(=O)[C@H](CCc3ccc(O)cc3)NC(=O)[C@@H](C)NC(=O)[C@H](CO)NC(=O)[C@H](CCCCN)NC(=O)[C@H](Cc3ccc(-c4ccc(C(=O)O)cc4)cc3)NC(=O)CNC(=O)[C@@H](C)N(C)C(=O)[C@H](CC(=O)O)NC(=O)[C@H]([C@@H](C)c3c[nH]c4cccc(Cl)c34)NC(=O)[C@@H]3C[C@@H](N)CN3C(=O)CNC(=O)[C@H](Cc3ccc(C(=O)O)cc3)NC(=O)[C@H](Cc3c[nH]c4ccccc34)NC2=O)cc1` [Example 138] (cyclo([AEF](Ac)W[Phe(4-COOH)]G[Pro(4R-NH2)][Trp(4-Cl)(βS-Me)]D[dNMeA]G[Bip(4'-COOH)]KS[dA][hTyr])) showed an IC50 of 214 pM.
